From patent publication US8987449B2, “Medicine for treating ischemic brain injury and its sequelae, and preparation method thereof” (Haimin Lei, priority 2011, dated 2015) come the findings set out here.

The subject of one data set is ICR white mice. Description: Acute toxic experiment of mice by oral administration. The format is in vivo, mouse. The arrangement: key to Animal reaction in 14 days after the administration: appearance / Animal reaction in 14 days after the administration: behavior / Animal reaction in 14 days after the administration: hair / Animal reaction in 14 days after the administration: respiration / Animal reaction in 14 days after the administration: posture / Animal reaction in 14 days after the administration: reaction: ✓ means normal. The note with it: for Animal reaction in 14 days after the administration: death: 10 animals; for Animal reaction in 14 days after the administration: death / Animal reaction in 14 days after the administration: appearance / Animal reaction in 14 days after the administration: behavior / Animal reaction in 14 days after the administration: hair / Animal reaction in 14 days after the administration: posture / Animal reaction in 14 days after the administration: reaction / Animal reaction in 14 days after the administration: respiration: oral 3 x 1800 mg/kg (5400 mg/kg) in one day. On the procedure: ICR white mice (half female and half male, 18-22 g, experiment animal certificate No.: SCXK (Jing) 2006-0009);
LQC-T4 (white powder (self made); and LQC-T4 4500 mg was dissolved into 0.5% sodium carboxymethyl cellulose 100 ml and then suspended by supersonic wave. The suspension was used in situ).
The qualified animals were quarantined and weighed before the administration. The animals were divided into groups randomly by weight. The intragastric administration tool was used for mice to carry out the intragastric administration. The mice were fasted but not water-deprived (continuously for 14 h) overnight before being administrated. The mice were administrated at 9:00 AM for the first time (1800 mg/kg) on the present administration day and observed continuously for 1 h. The mice were administrated for the second time (1800 mg/kg) at an interval of 6 h since the first administration and observed continuously for 1 h. The mice were administrated for the third time (1800 mg/kg) at an interval of 6 h since the second administration, observed continuously for 1 h and then the mice were fed.

Data set [1] has as its system chicken chorioallantoic membrane (CAM). The experiment in a line: Effect of LQC-T on CAM angiogenesis (CAM method, vessel count). As to conditions: 20 μg/chicken embryo. The format is in vivo. On the procedure: Embryonated chicken eggs of Lohmann of German, egg weight 50-60 g (embryo experiment center of Chinese Agriculture University)
LQC-T (1-6) (prepared by the methods of examples 2-7), wherein the purity was ≧98%, determined by high performance liquid chromatography (HPLC), meeting the requirements of the experiment. The powder was carefully sealed and preserved at 4° C.
Aseptic gelatin sponge, which was made into a wafer having a diameter of 5 mm by a hole-puncher in advance, was used as sample carrier. The prepared LQC-T series compounds were added according to 20 μg/chicken embryo in an aseptic environment. The 0.9% physiological saline was used in a blank group. The samples were air-dried in an aseptic environment.
A hatching egg after disinfection was put into a 37° C. incubation box with air sac upward until the seventh day of incubation. The egg embryo was disinfected using alcohol at a super clean bench, and then a small hole was drilled at the top of the egg embryo using a dental drill, and the nearby egg shell and shell membrane were removed carefully to form the opening with the size of about 1.2 cm×1.2 cm. After spotting the location for applying the sample, the air sac was broken with injection needle at the interface between air sac and the yolk and then 1-2 drops of aseptic physiological saline was injected so that the air sac membrane was separated from CAM membrane. Then the upper air sac membrane was slightly removed with a nipper to expose the lower CAM membrane.
The medicine-containing carrier was softly put by a nipper at the locations of CAM and yolk cyst membrane with fewer vessels, the opening was then sealed with aseptic transparent tape and incubation was continued for another 72 h.
After the incubation, the transparent tape blocking the chicken embryo air sac was removed with a nipper. The liquid of equal-volumetrically mixed methanol/acetone 1-2 ml was added and fixed at room temperature for 10 min. The CAM membrane was carefully removed and put it onto a slide. Then it was observed and a photograph was taken. The effect of the compounds on angiogenesis was evaluated by the count analytic method using the numbers of great vessels, medium vessels and small vessels arranged radially around by the carrier.
All the data were statistically analyzed using SPSS11.0 software pack. The difference between the administration group and the blank group was given through one-way variance analysis. P<0.05 had statistical significance.

For the compound `COc1cc(C(=O)OCc2nc(C)c(C)nc2C)ccc1OCc1nc(C)c(C)nc1C` [LQC-T4, (3,5,6-trimethylpyrazine-2-yl)methyl 3-methoxy-4-((3,5,6-trimethylpyrazine-2-yl)methoxy) benzoate], in the data set on ICR white mice (mice ♀), the “Animal reaction in 14 days after the administration: death” value is 0, the “Animal reaction in 14 days after the administration: appearance” value is recorded as “✓”, the “Animal reaction in 14 days after the administration: behavior” value is “✓” and the “Animal reaction in 14 days after the administration: hair” value was “✓”. In addition, in the data set with ICR white mice (mice ♀), the “Animal reaction in 14 days after the administration: posture” value was “✓”, the “Animal reaction in 14 days after the administration: reaction” value was “✓” and the “Animal reaction in 14 days after the administration: respiration” value is “✓”. Also, in the data set on ICR white mice (mice ♂), the “Animal reaction in 14 days after the administration: death” value is given as 0, the “Animal reaction in 14 days after the administration: appearance” value is listed as “✓”, the “Animal reaction in 14 days after the administration: behavior” value is reported as “✓” and the “Animal reaction in 14 days after the administration: hair” value is on record as “✓”. In the data set on ICR white mice (mice ♂), the “Animal reaction in 14 days after the administration: posture” value is given as “✓”, the “Animal reaction in 14 days after the administration: reaction” value is listed as “✓” and the “Animal reaction in 14 days after the administration: respiration” value is reported as “✓”. Also, the “death in 12 h after the administration” value in the data set with ICR white mice (mice, oral 3 x 1800 mg/kg) was “No death was observed”. In the data set with ICR white mice (mice, oral, maximum dosage of 5400 mg/kg, observed continuously for 14 days), the “toxic reaction at the maximum dosage” value is reported as “No toxic reaction was observed”. In addition, the “small vessel angiogenesis of CAM model, Medicine group (X ± S)” value in data set [1] (72 h incubation, number of small vessels, blank group 8.67 ± 1.03) is given as 14.4 ± 2.16. Further, the “effect on growth of new (small) vessels compared with the blank group” value in data set [1] (result in words) is “significant promoting effect”.
